Measured values from ChEMBL document CHEMBL1147043, “Comparative metabolism of radiolabeled muraglitazar in animals and humans by quantitative and qualitative metabolite profiling” (Drug Metab Dispos, 2007).

Legend:
[1] = Biodistribution in orally dosed human feces assessed as muraglitazar 12-carboxylic acid level by LC/MS analysis; assay type: ADME, organism-based; conditions: in vivo, po
Rattus norvegicus [2] = experiment: Biodistribution in orally dosed Sprague-Dawley rat feces assessed as O-demethyl muraglitazar level by LC/MS analysis; assay type: ADME, organism-based; conditions: in vivo, po
[3] = Biodistribution in orally dosed Beagle dog feces assessed as O-demethyl muraglitazar level by LC/MS analysis; assay type: ADME, organism-based, Canis lupus familiaris; conditions: in vivo, po
[4] = Biodistribution in orally dosed Beagle dog feces assessed as acetylimide derivative of muraglitazar level by LC/MS analysis; assay type: ADME, organism-based, Canis lupus familiaris; conditions: in vivo, po
[5] = Metabolic stability in cynomolgus monkey hepatocytes assessed as muraglitazar 12-carboxylic acid level by LC/MS analysis relative to control; assay type: ADME, cell-based, Macaca fascicularis, Hepatocyte
Hepatocyte [6] = experiment: Metabolic stability in human hepatocytes assessed as 8-hydroxy-O-demethyl muraglitazar level by LC/MS analysis relative to control; assay type: ADME, cell-based
Hepatocyte [7] = experiment: Metabolic stability in human hepatocytes assessed as 17-hydroxy-O-demethyl muraglitazar level by LC/MS analysis relative to control; assay type: ADME, cell-based
Hepatocyte [8] = experiment: Metabolic stability in human hepatocytes assessed as 8-hydroxy muraglitazar level by LC/MS analysis relative to control; assay type: ADME, cell-based
[9] = Biodistribution in orally dosed human urine assessed as muraglitazar glucuronide level by LC/MS analysis; assay type: ADME, organism-based; conditions: in vivo, po
Rattus norvegicus [10] = experiment: Biodistribution in orally dosed Sprague-Dawley rat urine assessed as 9-hydroxy muraglitazar level by LC/MS analysis; assay type: ADME, organism-based; conditions: in vivo, po
[11] = Biodistribution in orally dosed cynomolgus monkey feces assessed as 9-hydroxy muraglitazar level by LC/MS analysis; assay type: ADME, organism-based, Macaca fascicularis; conditions: in vivo, po
Rattus norvegicus [12] = experiment: Biodistribution in orally dosed Sprague-Dawley rat urine assessed as O-demethyl muraglitazar level by LC/MS analysis; assay type: ADME, organism-based; conditions: in vivo, po
[13] = Biodistribution in orally dosed human feces assessed as acetylimide derivative of muraglitazar level by LC/MS analysis; assay type: ADME, organism-based; conditions: in vivo, po
[14] = Biodistribution in orally dosed cynomolgus monkey urine assessed as O-demethyl muraglitazar glucuronide level by LC/MS analysis; assay type: ADME, organism-based, Macaca fascicularis; conditions: in vivo, po
Rattus norvegicus [15] = experiment: Biodistribution in orally dosed Sprague-Dawley rat urine assessed as O-dealkyl-O-demethyl muraglitazar level by LC/MS analysis; assay type: ADME, organism-based; conditions: in vivo, po
[16] = Biodistribution in orally dosed Beagle dog urine assessed as O-dealkyl-O-demethyl muraglitazar level by LC/MS analysis; assay type: ADME, organism-based, Canis lupus familiaris; conditions: in vivo, po
[17] = Biodistribution in orally dosed cynomolgus monkey feces assessed as O-dealkyl-O-demethyl muraglitazar level by LC/MS analysis; assay type: ADME, organism-based, Macaca fascicularis; conditions: in vivo, po
[18] = Biodistribution in orally dosed human urine assessed as O-dealkyl-O-demethyl muraglitazar level by LC/MS analysis; assay type: ADME, organism-based; conditions: in vivo, po
[19] = Metabolic stability in CD1 mouse hepatocytes assessed as 17-hydroxy-O-demethyl muraglitazar level by LC/MS analysis relative to control; assay type: ADME, cell-based, Hepatocyte
[20] = Metabolic stability in CD1 mouse hepatocytes assessed as 8-hydroxy muraglitazar level by LC/MS analysis relative to control; assay type: ADME, cell-based, Hepatocyte
[21] = Metabolic stability in CD1 mouse hepatocytes assessed as 12-hydroxy muraglitazar level by LC/MS analysis relative to control; assay type: ADME, cell-based, Hepatocyte
[22] = Metabolic stability in CD1 mouse hepatocytes assessed as muraglitazar glucuronide level by LC/MS analysis relative to control; assay type: ADME, cell-based, Hepatocyte
[23] = Metabolic stability in CD1 mouse hepatocytes assessed as 9-hydroxy muraglitazar level by LC/MS analysis relative to control; assay type: ADME, cell-based, Hepatocyte
[24] = Metabolic stability in CD1 mouse hepatocytes assessed as di-oxygenated muraglitazar level by LC/MS analysis relative to control; assay type: ADME, cell-based, Hepatocyte
Hepatocyte [25] = experiment: Metabolic stability in Sprague-Dawley rat hepatocytes assessed as 8-hydroxy-O-demethyl muraglitazar level by LC/MS analysis relative to control; assay type: ADME, cell-based
Hepatocyte [26] = experiment: Metabolic stability in Sprague-Dawley rat hepatocytes assessed as 17-hydroxy muraglitazar level by LC/MS analysis relative to control; assay type: ADME, cell-based
Rattus norvegicus [27] = experiment: Biodistribution in orally dosed Sprague-Dawley rat feces assessed as 8-hydroxy muraglitazar level by LC/MS analysis; assay type: ADME, organism-based; conditions: in vivo, po
[28] = Drug concentration in human urine assessed as recovery of radioactive dose at 20 mg, po after 240 hrs; assay type: ADME, organism-based; conditions: in vivo
[29] = Drug concentration in cynomolgus monkey urine at 1.9 mg/kg, po after 12 hrs; assay type: ADME, organism-based, Macaca fascicularis; set-up: dose 1.9 mg/kg, route oral; conditions: read-out: Drug uptake
[30] = Drug concentration in human bile at 20 mg/kg, po after 48 hrs; assay type: ADME, organism-based; set-up: dose 20 mg/kg, route oral; conditions: in vivo
[31] = Fecal excretion rate in orally dosed Sprague-Dawley rat within 24 hrs; assay type: ADME, organism-based; conditions: faeces, po, read-out: Activity
[32] = Fecal excretion rate in orally dosed Beagle dog within 48 hrs; assay type: ADME, organism-based, Canis lupus familiaris; conditions: faeces, po, read-out: Activity
Plasma [33] = experiment: Biodistribution in orally dosed human plasma assessed as O-demethyl muraglitazar level after 4 hrs by LC/MS analysis; assay type: ADME, organism-based; conditions: in vivo, po
Plasma [34] = experiment: Biodistribution in orally dosed human plasma assessed as O-demethyl muraglitazar level after 12 hrs by LC/MS analysis; assay type: ADME, organism-based; conditions: in vivo, po
[35] = Biodistribution in orally dosed human feces assessed as 8,12-dihydroxy muraglitazar level by LC/MS analysis; assay type: ADME, organism-based; conditions: in vivo, po
[36] = Biodistribution in orally dosed cynomolgus monkey urine assessed as 12-hydroxy-O-demethyl muraglitazar level by LC/MS analysis; assay type: ADME, organism-based, Macaca fascicularis; conditions: in vivo, po
[37] = Biodistribution in orally dosed cynomolgus monkey feces assessed as 12-hydroxy-O-demethyl muraglitazar level by LC/MS analysis; assay type: ADME, organism-based, Macaca fascicularis; conditions: in vivo, po
[38] = Drug concentration in bile duct-cannulated Sprague-Dawley rat feces assessed as recovery of radioactive dose at 11 mg/kg, po after 24 hrs; assay type: ADME, organism-based; set-up: dose 11 mg/kg, route oral; conditions: in vivo
[39] = Drug concentration in bile duct-cannulated CD1 mouse bile assessed as recovery of radioactive dose at 40 mg/kg, po after 24 hrs; assay type: ADME, organism-based; set-up: dose 40 mg/kg, route oral; conditions: in vivo
Plasma [40] = experiment: Biodistribution in orally dosed human plasma assessed as 12,17-dihydroxy muraglitazar level after 4 hrs by LC/MS analysis; assay type: ADME, organism-based; conditions: in vivo, po
Plasma [41] = experiment: Biodistribution in orally dosed cynomolgus monkey plasma assessed as […] muraglitazar level after 1 hr by LC/MS analysis; assay type: ADME, organism-based, Macaca fascicularis; conditions: in vivo, po
Plasma [42] = experiment: Biodistribution in orally dosed Beagle dog plasma assessed as 12-dihydroxy muraglitazar level after 12 hrs by LC/MS analysis; assay type: ADME, organism-based, Canis lupus familiaris; conditions: in vivo, po
Plasma [43] = experiment: Biodistribution in orally dosed human plasma assessed as 12-dihydroxy muraglitazar level after 4 hrs by LC/MS analysis; assay type: ADME, organism-based; conditions: in vivo, po
Plasma [44] = experiment: Biodistribution in orally dosed Sprague-Dawley rat plasma assessed as 17-dihydroxy muraglitazar level after 12 hrs by LC/MS analysis; assay type: ADME, organism-based; conditions: in vivo, po
Plasma [45] = experiment: Biodistribution in orally dosed cynomolgus monkey plasma assessed as O-demethyl muraglitazar glucuronide level after 1 hr by LC/MS analysis; assay type: ADME, organism-based, Macaca fascicularis; conditions: in vivo, po
Plasma [46] = experiment: Biodistribution in orally dosed human plasma assessed as O-Dealkyl muraglitazar level after 12 hrs by LC/MS analysis; assay type: ADME, organism-based; conditions: in vivo, po
Plasma [47] = experiment: Biodistribution in orally dosed Sprague-Dawley rat plasma assessed as 8-hydroxy-O-demethyl muraglitazar level after 12 hrs by LC/MS analysis; assay type: ADME, organism-based; conditions: in vivo, po
Plasma [48] = experiment: Biodistribution in orally dosed human plasma assessed as 8-hydroxy-O-demethyl muraglitazar level after 4 hrs by LC/MS analysis; assay type: ADME, organism-based; conditions: in vivo, po
Cynomolgus monkey = experiment: Cmax in cynomolgus monkey at 1.9 mg/kg, po after 24 hrs; assay type: ADME, organism-based, Macaca fascicularis; set-up: dose 1.9 mg/kg, route oral; conditions: in vivo
[49] = Tmax in cynomolgus monkey at 1.9 mg/kg, po after 24 hrs; assay type: ADME, organism-based, Macaca fascicularis; set-up: dose 1.9 mg/kg, route oral; conditions: in vivo
[50] = Biodistribution in orally dosed Beagle dog urine assessed as O-dealkyl muraglitazar level by LC/MS analysis; assay type: ADME, organism-based, Canis lupus familiaris; conditions: in vivo, po
Hepatocyte [51] = experiment: Metabolic stability in human hepatocytes assessed as O-demethyl muraglitazar glucuronide level by LC/MS analysis relative to control; assay type: ADME, cell-based
Hepatocyte [52] = experiment: Metabolic stability in human hepatocytes assessed as di-oxygenated muraglitazar level by LC/MS analysis relative to control; assay type: ADME, cell-based

Structure (SMILES): COc1ccc(OC(=O)N(CC(=O)O)Cc2ccc(OCCc3nc(-c4ccccc4)oc3C)cc2)cc1 [MURAGLITAZAR]
- Drug uptake [1]: 0.13%
- Drug uptake (Rattus norvegicus [2]): 34.2%
- Drug uptake [3]: 24.92%
- Drug uptake [4]: 0.18%
- Drug uptake [5]: 13%
- Drug uptake (Hepatocyte [6]): < 0.2%
- Drug uptake (Hepatocyte [7]): 1.6%
- Drug uptake (Hepatocyte [8]): < 0.2%
- Drug uptake [9]: 1%
- Drug uptake (Rattus norvegicus [10]): < 0.01%
- Drug uptake [11]: 0.56%
- Drug uptake (Rattus norvegicus [12]): 0.12%
- Drug uptake [13]: 3.21%
- Drug uptake [14]: < 0.01%
- Drug uptake (Rattus norvegicus [15]): 0.21%
- Drug uptake [16]: 0.01%
- Drug uptake [17]: 0.4%
- Drug uptake [18]: 0.04%
- Drug uptake [19]: 0.3%
- Drug uptake [20]: 0.3%
- Drug uptake [21]: 11%
- Drug uptake [22]: 5.2%
- Drug uptake [23]: 1.3%
- Drug uptake [24]: 1.4%
- Drug uptake (Hepatocyte [25]): < 0.2%
- Drug uptake (Hepatocyte [26]): 2%
- Drug uptake (Rattus norvegicus [27]): 4.39%
- Drug uptake [28]: 3.7%
- dose excreted at 12 h [29]: 1.7%
- Drug uptake [30]: 0.068 mgequiv/ml
- dose excreted at 24 h [31]: 85%
- dose excreted at 48 h [32]: 95%
- Drug uptake (Plasma [33]): 0.5%
- Drug uptake (Plasma [34]): 0.4%
- Drug uptake [35]: 1.36%
- Drug uptake [36]: 0.26%
- Drug uptake [37]: 1.61%
- Drug uptake [38]: 0.55%
- Drug uptake [39]: 66%
- Drug uptake (Plasma [40]): < 0.05%
- Drug uptake (Plasma [41]): 0.9%
- Drug uptake (Plasma [42]): 9%
- Drug uptake (Plasma [43]): 1%
- Drug uptake (Plasma [44]): < 0.05%
- Drug uptake (Plasma [45]): 0.1%
- Drug uptake (Plasma [46]): 0.2%
- Drug uptake (Plasma [47]): 0.05%
- Drug uptake (Plasma [48]): < 0.05%
- Cmax (Cynomolgus monkey): 7.1 ugequiv/ml
- Tmax [49]: 1 h
- Drug uptake [50]: 0.44%
- Drug uptake (Hepatocyte [51]): < 0.2%
- Drug uptake (Hepatocyte [52]): 4.5%
